Literature values in patent US20110223312A1, “TRIGLYCERIDE-ENCAPSULATED PHYTOSTEROL MICROPARTICLES DISPERSED IN BEVERAGES” (priority 2009, published 2011).

Test system: plasma cholesterol

Row | SMILES | lowering of serum cholesterol (12-18 g per day in divided doses, males with atherosclerosis (Faquhar et al. 1956)) | decrease of the plasma cholesterol level (9-18 grams of sitosterol per day, coarse powdered form, two earlier human studies)
1 | CC[C@H](CC[C@@H](C)[C@H]1CC[C@H]2[C@@H]3CC=C4C[C@@H](O)CC[C@]4(C)[C@H]3CC[C@]12C)C(C)C [beta sitosterol] | 15-20% | –
2 | CC[C@H](CC[C@@H](C)[C@H]1CC[C@H]2[C@@H]3CC=C4C[C@@H](O)CC[C@]4(C)[C@H]3CC[C@]12C)C(C)C [sitosterol] | – | approximately 15%
